Earlier results on 2 molecules are cited in patent publication US20110223312A1, “TRIGLYCERIDE-ENCAPSULATED PHYTOSTEROL MICROPARTICLES DISPERSED IN BEVERAGES” (priority 2009, published 2011).

The subject of the data set is plasma cholesterol.

For `CC[C@H](CC[C@@H](C)[C@H]1CC[C@H]2[C@@H]3CC=C4C[C@@H](O)CC[C@]4(C)[C@H]3CC[C@]12C)C(C)C` [beta sitosterol], the “lowering of serum cholesterol” value (12-18 g per day in divided doses, males with atherosclerosis (Faquhar et al. 1956)) was 15-20%.
On to `CC[C@H](CC[C@@H](C)[C@H]1CC[C@H]2[C@@H]3CC=C4C[C@@H](O)CC[C@]4(C)[C@H]3CC[C@]12C)C(C)C` [sitosterol], for which the “decrease of the plasma cholesterol level” value (9-18 grams of sitosterol per day, coarse powdered form, two earlier human studies) is “approximately 15%”.
